US12077607B2, “Functional and therapeutic effects of PAR4 cleavage by cathepsin G” (UNIVERSITY OF UTAH RESEARCH FOUNDATION, priority 2021, dated 2024)
Each block holds one compound with its values, some of them ahead of it. No end group written: not given here.

How the values were obtained:
washed platelets [1] = experiment: Platelet aggregation of human washed platelets; type: cell-based; conditions: for platelet aggregation induced by peptide / peptide concentration producing maximal platelet aggregation: washed platelets; for platelet aggregation induced by peptide: 1 mM peptide (RA-6mer 1 mM or 10 mM; AL-10mer independent of concentration)
Protocol: (§1) Platelet isolation, aggregation, and activation. Human washed platelets were prepared and resuspended in Tyrode's Buffer at 2×10^8/mL as described (Edelstein et al., Nat Med. 2013; 19(12):1609-1616). For human and dog platelet comparisons, platelets were prepared using a modified human platelet protocol with final concentrations of […] (Cayman Chemical, Ann Arbor, MI, USA) used during centrifugation steps. Centrifugations after Tyrode's washes was decreased to 1,250×g as described in Cremer et al., PLOS One. 2019; 14(11): e0224891. Platelet aggregation was measured under stirring conditions at 37° C. using a PAP-8E aggregometer after treatment with the following agonists: arachidonic acid (Bio/Data Corporation, Horsham, PA, USA), cathepsin G, elastase, proteinase 3 (Athens Research Group), α-thrombin (Sigma, St. Louis, MO, USA), PAR-1 peptide (SFLLRN) (GL Biochem, China). P-selectin and PAC-1 were measured as previously described (Yee et al., J Thromb Haemost. 2006; 4(9):2043-2050; Tourdot et al., Arterioscler Thromb Vasc Biol. 2014; 34(12):2644-2650).
(§2) GYPGQV-NH2 (SEQ ID NO: 5), RALLLGWVPTR-NH2 (SEQ ID NO: 1), ALLLGWVPTR-NH2 (SEQ ID NO: 2), RALLLG-NH2 (SEQ ID NO: 4). Peptides were synthesized by BIOMATIK (Wilmington, DE, USA) at similar purities. All peptides were suspended in 50% DMSO and 50% ethanol. To measure platelet activation, washed platelets were stimulated with various concentrations of the peptide in the presence of CD41-APC, P-selectin (PE) and PAC-1 (FITC) for 15 minutes at 37° C. and then fixed with FACS Lysis Buffer. Samples were immediately run on a Cytoflex flow cytometer. In some experiments, platelets were stimulated with peptides and platelet aggregation performed as described above. Platelet calcium flux was induced by RALLLGWVPTR (2 mM; SEQ ID NO: 1), CatG (500 nM), ALLLGWVPTR (2 mM; SEQ ID NO: 2) or tyrodes buffer and monitored as described above.

washed platelets [2] = experiment: Platelet calcium flux assay; type: cell-based, human; conditions: CatG 500 nM; for platelet calcium flux: peptides 2 mM, FURA2-AM loaded washed platelets
Protocol: Platelet calcium flux assay. Washed platelets were incubated at 37° C. for 1 hour in Tyrode's buffer (supplemented with pgel and heparin) with Fura-2AM (final concentration 2 μM). Platelets were washed and resuspended to a final concentration of 4×10^8/mL. Platelets were dispensed into a Costar 96-well half area clear bottom plate and placed in the Flexstation 3 (Molecular Devices) where cathepsin G (500 nM), buffer, or peptides (2 mM) were injected onto cells and calcium flux monitored.
as §2

PAR-1 = biological target: T1, PAR-1 (Homo sapiens, UniProt P25116); experiment: Antagonist study: PAR-1 inhibitor in platelet aggregation; type: cell-based; conditions: 100 nM VPX
T1 construct: endogenous in cells; host or cells: human washed platelets
T1 sequence (P25116 22-425): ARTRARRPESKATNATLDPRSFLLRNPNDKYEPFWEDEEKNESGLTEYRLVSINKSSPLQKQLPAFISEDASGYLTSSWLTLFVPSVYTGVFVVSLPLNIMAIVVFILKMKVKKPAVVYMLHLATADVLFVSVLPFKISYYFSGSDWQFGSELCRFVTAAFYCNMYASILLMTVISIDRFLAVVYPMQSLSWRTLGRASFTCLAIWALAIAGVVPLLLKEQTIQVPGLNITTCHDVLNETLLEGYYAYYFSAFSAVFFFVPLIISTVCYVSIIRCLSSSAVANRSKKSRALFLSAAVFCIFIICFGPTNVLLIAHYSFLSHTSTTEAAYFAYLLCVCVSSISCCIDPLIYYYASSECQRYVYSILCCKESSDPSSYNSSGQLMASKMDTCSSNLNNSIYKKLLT
Protocol: Human washed platelets were prepared and resuspended in Tyrode's Buffer at 2×10^8/mL as described (Edelstein et al., Nat Med. 2013; 19(12):1609-1616). […] Platelet aggregation was measured under stirring conditions at 37° C. using a PAP-8E aggregometer after treatment with the following agonists: arachidonic acid (Bio/Data Corporation, Horsham, PA, USA), cathepsin G, elastase, proteinase 3 (Athens Research Group), α-thrombin (Sigma, St. Louis, MO, USA), PAR-1 peptide (SFLLRN) (GL Biochem, China).
Antagonist Studies. Washed platelets were incubated for 15 minutes at 37° C. with PAR-4 blocking antibody RC3 (100 μg/mL) (generous gift from Regeneron Pharmaceuticals; French et al., Blood Adv. 2018; 2(11): 1283-1293), PAR-1 inhibitor vorapaxar (100 nM), and/or PAR-4 inhibitor BMS-986120 (400 nM) (Cayman Chemical, Ann Arbor, MI, USA).

mouse washed platelets = experiment: Platelet aggregation of mouse washed platelets; type: cell-based; conditions: 1 U/mL human thrombin, 1 μM human CatG or 1 mM RA-11mer
Description: (§3) Animal studies. Mouse platelets were isolated as previously described from C57BL/6 mice (Denorme et al., Blood. 2020; 135(6):429-440). Dog platelets were isolated from whole blood drawn into ACD using a similar isolation procedure as for human platelets. All animal studies were approved by the University of Utah Institutional Animal Care and Use Committee (18-10012).
(§4) Platelet and neutrophil isolation. Platelets and neutrophils were isolated as previously described (Yost et al., J Clin Invest. 2016; 126(10):3783-3798). Platelet isolation from dogs, rats and mice was approved by the IACUC. Platelet activation and aggregation were performed as previously described (Manne et al., Blood. 2020; 136(11): 1317-1329).
as §1

washed platelets [3] = experiment: Platelet activation by flow cytometry (PAC-1 binding, P-selectin); type: cell-based, human; conditions: 1 mM peptide vs buffer; washed platelets
Protocol: as §1, §2

WT human PAR4 (hPAR4) = biological target: T2, WT human PAR4 (hPAR4) (Homo sapiens, UniProt Q96RI0); experiment: PAR4 calcium flux assay in HEK293T/17 cells expressing WT PAR4; type: cell-based; conditions: 1.5 mM peptide; HEK293T/17 cells
T2 construct: Flag; expressed in transfected cells; host or cells: HEK293T/17 (ATCC CRL-11268)
T2 sequence (Q96RI0 18-385): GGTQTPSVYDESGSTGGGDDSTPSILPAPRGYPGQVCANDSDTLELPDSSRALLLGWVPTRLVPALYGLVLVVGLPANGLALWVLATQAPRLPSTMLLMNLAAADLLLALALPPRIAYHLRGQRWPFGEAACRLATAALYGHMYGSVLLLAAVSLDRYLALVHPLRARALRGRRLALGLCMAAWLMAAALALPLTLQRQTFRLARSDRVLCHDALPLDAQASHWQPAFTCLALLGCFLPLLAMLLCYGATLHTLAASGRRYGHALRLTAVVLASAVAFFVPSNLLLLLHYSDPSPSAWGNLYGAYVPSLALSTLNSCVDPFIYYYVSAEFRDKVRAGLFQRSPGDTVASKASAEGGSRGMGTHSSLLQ
Protocol: PAR4 calcium flux assays. PAR4-dependent calcium flux was measured using Fura2-QBT in platelets and HEK293T/17 cells with wild-type (WT) and mutant PAR4 (Tourdot et al., Arterioscler Thromb Vasc Biol. 2014; 34(12):2644-2650).
PAR4 mutant calcium flux assays. Using Quikchange Lightning Site-Directed mutagenesis (Agilent) per manufacturing instructions, pCMV-Flag-PAR4-S66E, pCMV-Flag-PAR4-S67E, and pCMV-Flag-PAR4-R68E were generated from mutation of pCMV-Flag-PAR4 and confirmed by sequencing (University of Utah DNA Sequencing Core). Prior to transfection, HEK293T/17 cells (ATCC CRL-11268) were seeded at 4.5×10^4/mL. The following day, cells were transfected with the plasmid of interest using Lipofectamine 2000 (Invitrogen, Carlsbad, CA, USA). Twenty-four hours after transfection, media was removed and replaced with Optimem w/Glutamax (Gibco, Carlsbad, CA, USA) containing vorapaxar (100 nM) (Cayman Chemical, Ann Arbor, MI, USA) and Fura2-QBT (Molecular Devices). Following incubation for 1 hour at 37° C., plate was placed in the Flexstation 3 (Molecular Devices) where agonists, Tyrode's Buffer, cathepsin G (2.5 μM), or α-thrombin (1.5 U/mL), were injected onto cells and calcium mobilization was monitored and recorded.

dog washed platelets = experiment: Platelet aggregation of dog washed platelets; type: cell-based; conditions: 1 U/mL human thrombin, 1 μM human CatG or 1 mM RA-11mer
Description: as §3, §4, §1

rat washed platelets = experiment: Platelet aggregation of rat washed platelets; type: cell-based; conditions: 1 U/mL human thrombin, 1 μM human CatG or 1 mM RA-11mer
Protocol: as §4, §1

[4] = Ability of peptide to go into solution; type: physicochemical; conditions: numerous attempts with different solvents
Description: Having said that, perhaps the hydrophobic portion of the C-terminus of RALLLGWVPTR (SEQ ID NO: 1) stabilizes the tethered ligand on the platelet plasma membrane.

Compound: ALLLGWVPTR (ALLLGWVPTR-NH2) [10-mer PAR4 Tethered Ligand Fragment]
- platelet aggregation induced by peptide (washed platelets [1]): no discernable platelet aggregation
- platelet calcium flux (washed platelets [2]): no discernable

Compound: GYPGQV-NH2 [the thrombin-generated PAR4 tethered ligand, reference compound]
- peptide concentration producing maximal platelet aggregation (washed platelets [1]): 6 mM

Compound: RALLLG-NH2 [6mer from the CatG tethered ligand]
- platelet aggregation induced by peptide (washed platelets [1]): not able to induce platelet aggregation

- effect on thrombin-induced platelet aggregation (PAR-1; 0.1 U/mL thrombin): abolished
- effect on PAR1 activation by PAR1 activation peptide (PAR-1; SFLLRN 10 μM): efficiently ablated PAR1 activation
Compound: CCOC(=O)N[C@@H]1CC[C@@H]2[C@@H](C1)C[C@H]1C(=O)O[C@H](C)[C@H]1[C@H]2/C=C/c1ccc(-c2cccc(F)c2)cn1 [VPX, vorapaxar]

- calcium flux in HEK cells transfected with WT PAR4 compared with mock (WT human PAR4 (hPAR4)): induced calcium flux
Compound: RALLLGWVPTR (RALLLGWVPTR-NH2) [synthetic peptide representing the CatG-generated PAR4 tethered ligand]
- platelet aggregation, species comparison: mice (mouse washed platelets): induced aggregation only in humans and dogs
- platelet aggregation, species comparison: humans (washed platelets [1]; 1 U/mL human thrombin, 1 μM human CatG or 1 mM RA-11mer): induced aggregation
- potency as activator of PAR4, comparison (washed platelets [1]; from platelet aggregation data): more potent activator of PAR4 than the thrombin-generated tethered ligand
- peptide concentration producing maximal platelet aggregation (washed platelets [1]): 1 mM
- platelet aggregation induced by peptide (washed platelets [1]): increased
- peak platelet calcium flux, CatG compared with RALLLGWVPTR (washed platelets [2]; RA-11mer 2 mM): similar
- platelet calcium flux (washed platelets [2]): significant and sustained calcium flux
- granule release (P-selectin expression) (washed platelets [3]): increased
- integrin activation (PAC-1 binding) (washed platelets [3]): increased
- platelet aggregation, species comparison: dogs (dog washed platelets): induced aggregation
- platelet aggregation, species comparison: rats (rat washed platelets): induced aggregation only in humans and dogs

Compound: RALLLGWV [RALLLGWV 8mer, 8-mer PAR4 Tethered Ligand Fragment, intermediate length peptide]
- ability to go into solution [4]: inability to go into solution
